In PubChem BioAssay (NCI):
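Each compound was tested at five concentrations against cells in 96-well plates for 48 hours. At the GI50, growth is halved. Definition used: TGI = concentration required for complete inhibition of growth.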

How the values were obtained:
Assay in all cases: NCI tumour cell line growth inhibition, 48 h
MDA-N = tested on: MDA-N
DLD-1 colon = tested on: DLD-1 colon
DMS 114 small cell lung = tested on: DMS 114 small cell lung
HOP-18 NSCLC = tested on: HOP-18 NSCLC
KM20L2 colon = tested on: KM20L2 colon
LXFL 529 NSCLC = tested on: LXFL 529 NSCLC
M19-MEL melanoma = tested on: M19-MEL melanoma
RXF-631 renal = tested on: RXF-631 renal
XF 498 CNS = tested on: XF 498 CNS

Row | Structure (SMILES) | TGI (MDA-N) | TGI (DLD-1 colon) | TGI (DMS 114 small cell lung) | TGI (HOP-18 NSCLC) | TGI (KM20L2 colon) | TGI (LXFL 529 NSCLC) | TGI (M19-MEL melanoma) | TGI (XF 498 CNS) | other results
1 | CCc1oc2ccccc2c1C(=O)c1cc(Br)c(O)c(Br)c1 | > 100 µM | – | – | – | – | – | – | – | –
2 | O=C(O)c1ccc([N+](=O)[O-])c2c(=O)c3ccccc3[nH]c12 | – | > 100 µM | > 100 µM | > 100 µM | > 100 µM | > 100 µM | > 100 µM | – | TGI (RXF-631 renal): > 100 µM
3 | CCCN(CCC)C(=O)Cc1c2n(c3ccccc13)Cc1ccccc1-2 | – | > 100 µM | > 100 µM | > 100 µM | > 100 µM | > 100 µM | > 100 µM | > 100 µM | –
4 | COc1cc2c(OC)c(c1)CCCC1=CC(=O)C=C(CCC2)C1=O | 30.2 µM | – | – | – | – | – | – | – | –
5 | CCOC(=O)C#Cc1ccc(C#CC(=O)OCC)cc1 | 4.87 µM | – | – | – | – | – | – | – | –
6 | O=C(Nc1nccs1)c1cc(C2=CC=CC([N+](=O)[O-])C=C2)nc(=S)[nH]1 (configuration not stated) | – | – | > 100 µM | > 100 µM | > 100 µM | > 100 µM | > 100 µM | – | –
7 | C=C1C(=O)O[C@@H]2C[C@@H](C)[C@@H]3[C@@H](OC4OC(COC(C)=O)C(O)C(O)C4O)CC(=O)[C@@]3(C)C[C@H]12 (some centres not stated) | 3.51 µM | – | – | – | – | – | – | – | –
8 | CCCC(=O)N[C@@H](Cc1cc(I)c(O)c(I)c1)C(=O)NCCCNCCCCNCCCNC(=O)[C@@H](N)CCCN=C(N)N | – | – | > 100 µM | – | > 100 µM | > 100 µM | > 100 µM | > 100 µM | –
9 | COc1ccc2nc(NC(=O)C(=O)CC(=O)c3ccc(Cl)cc3)sc2c1 | – | > 100 µM | > 100 µM | > 100 µM | > 100 µM | > 100 µM | > 100 µM | > 100 µM | –
10 | COC1=C(C(=O)OC(C)(C)C)[C@]2(C)C(C(=O)OC(C)(C)C)C(OC)=C(C(=O)OC(C)(C)C)[C@]2(C)C1C(=O)OC(C)(C)C (some centres not stated) | – | > 100 µM | > 100 µM | > 100 µM | > 100 µM | > 100 µM | > 100 µM | > 100 µM | –
11 | c1cncc(C(Nc2cccc3cccnc23)Nc2cccc3cccnc23)c1 | > 100 µM | – | – | – | – | – | – | – | –
12 | COc1ccc(C=NC23CC4CC(CC(C4)C2)C3)cc1 | – | – | > 100 µM | – | > 100 µM | – | > 10 µM | – | –
13 | Cc1cccc(C)c1NC(=O)C(=O)CC(=O)CO | – | > 100 µM | > 100 µM | > 100 µM | > 100 µM | > 100 µM | > 100 µM | – | TGI (RXF-631 renal): > 100 µM
14 | CCN(CC)C(=S)N/N=C(\C)c1ccccc1O | – | > 100 µM | > 100 µM | 86.5 µM | 59.2 µM | > 100 µM | > 100 µM | – | TGI (RXF-631 renal): > 100 µM
15 | CC(=S)NNC(=O)c1ccncc1 | – | > 100 µM | – | > 100 µM | > 100 µM | > 100 µM | > 100 µM | > 100 µM | –
16 | O=C(c1ccc(NCN2C(=O)CCC2=O)cc1)c1ccc(NCN2C(=O)CCC2=O)cc1 | – | > 100 µM | – | – | > 100 µM | > 100 µM | > 100 µM | > 100 µM | TGI (RXF-631 renal): > 100 µM
17 | CNS(=O)(=O)NN(C)S(=O)(=O)c1ccc(Br)cc1 | – | – | > 100 µM | – | > 100 µM | > 100 µM | > 100 µM | > 100 µM | TGI (RXF-631 renal): > 100 µM
18 | COC[C@H]1OC(=O)c2coc3c2[C@@]1(C)C1=C(C3=O)[C@@H]2CCC(=O)[C@@]2(C)C[C@H]1OC(C)=O | > 100 µM | – | – | – | – | – | – | – | –
19 | CC(=O)Oc1cccc2c1C(=O)C(Br)(Br)CCC2 | 12.8 µM | 36.2 µM | 7.79 µM | 32.2 µM | 21.7 µM | 18.7 µM | 24.6 µM | 24.1 µM | TGI (RXF-631 renal): 35.5 µM

Row | Structure (SMILES) | TGI (MDA-N) | TGI (DLD-1 colon) | TGI (DMS 114 small cell lung) | TGI (HOP-18 NSCLC) | TGI (KM20L2 colon) | TGI (LXFL 529 NSCLC) | TGI (M19-MEL melanoma) | TGI (XF 498 CNS) | other results
20 | Cn1c2ccc([N+](=O)[O-])cc2c(=O)c2c(O)cc(O)cc21 | > 100 µM | – | – | – | – | – | – | – | –
21 | O[C@]12CCCC[C@H]1CCC2 | – | – | > 100 µM | – | – | > 100 µM | > 100 µM | > 100 µM | TGI (RXF-631 renal): > 100 µM
22 | CN(C)CCNC(=O)c1cc([N+](=O)[O-])ccn1 | 30.7 µM | – | – | – | – | – | – | – | –
23 | CC(=O)O[C@@H]1CC(C)C2CC2C2=C(C(O)OC2O)[C@@H]1C(C)CCC=C(C)C (some centres not stated) | – | 73.3 µM | 50.4 µM | – | 39.9 µM | 81.9 µM | 47.5 µM | 49.9 µM | –
24 | CNC1NC(=O)c2ccccc2N1Cc1ccc(F)cc1 (configuration not stated) | > 100 µM | – | – | – | – | – | – | – | –
25 | COc1ccc(/C=C2\CNC/C(=C\c3ccc(OC)cc3)C2=O)cc1 | – | > 100 µM | > 100 µM | > 100 µM | 89.6 µM | > 100 µM | > 100 µM | > 100 µM | –
26 | NC1CCC[C@@H](O)[C@H]1O (some centres not stated) | > 100 µM | – | – | – | – | – | – | – | –
27 | N#CC1(c2nc3ccccc3o2)C(=O)C(=O)N(c2ccc(Cl)c(Cl)c2)C(=O)C1=O | – | > 100 µM | – | > 100 µM | > 100 µM | > 100 µM | – | > 100 µM | –
28 | Cc1ccc(C2=Nc3ccccc3NC(=O)C2)cc1 | – | > 100 µM | > 100 µM | > 100 µM | > 100 µM | > 100 µM | > 100 µM | 93.4 µM | –
29 | O=Cc1[nH]c2ccccc2c1Br | – | > 100 µM | 44.7 µM | 83.4 µM | 41.5 µM | 60.6 µM | 59.7 µM | 63.7 µM | TGI (RXF-631 renal): 44.1 µM
30 | CCCCC(=O)[O-].N.N.N.N.N.[Co+3].[O-][Cl+3]([O-])([O-])[O-] | – | > 100 µM | – | – | > 100 µM | > 100 µM | – | – | GI50 (DLD-1 colon): > 100 µM; GI50 (KM20L2 colon): > 100 µM; GI50 (LXFL 529 NSCLC): > 100 µM
31 | CN(C)c1ccc(/C=C2\N=C(c3ccc(N)cc3)OC2=O)cc1 | – | > 100 µM | > 100 µM | > 100 µM | > 100 µM | > 100 µM | > 100 µM | > 100 µM | TGI (RXF-631 renal): > 100 µM
32 | Cc1ccc2c(=O)[nH]sc2c1 | 27 µM | – | – | – | – | – | – | – | –
33 | CC[O-].CC[O-].O=Nc1ccc2cc([O-])ccc2c1.O=Nc1ccc2cc([O-])ccc2c1.[Ti+4] | – | > 21.9 µM | 6.06 µM | 2.82 µM | 8.22 µM | – | 3.25 µM | – | GI50 (DLD-1 colon): 2.45 µM; GI50 (DMS 114 small cell lung): 1.95 µM; GI50 (HOP-18 NSCLC): 1.49 µM; GI50 (KM20L2 colon): 2.83 µM; GI50 (M19-MEL melanoma): 0.728 µM
34 | C=CCN=C1N=C(CC(=O)OCC)CS1 | – | > 100 µM | > 100 µM | > 100 µM | > 100 µM | > 100 µM | > 100 µM | > 100 µM | –
35 | Cc1c(C(=O)CC(=O)C(=O)Nc2cccc(C(F)(F)F)c2)[n+](=O)c2ccccc2n1[O-] | – | – | 4.43 µM | 25.5 µM | 11.8 µM | 14.1 µM | 3.69 µM | – | TGI (RXF-631 renal): 11 µM
36 | Cc1ccc(S(=O)(=O)OCC23CCC(C4CC42)C2CC23)cc1 (configuration not stated) | – | > 100 µM | > 100 µM | > 100 µM | > 100 µM | > 100 µM | > 100 µM | – | TGI (RXF-631 renal): > 100 µM
37 | CN(C)CCCn1c2c3ccccc3ccc2c2oc(=O)c3ccccc3c21 | – | 2.99 µM | 4.09 µM | 40.2 µM | 2.78 µM | 10 µM | 8.86 µM | 9.55 µM | –
